Data set [1] can be described thus: In vivo DMPK study in mice after a single administration. Further details: species or system female Balb/c mice. Particulars: female, Balb/c, mouse, plasma, intravenous 1 mg/kg. How it is done:
Experimental objective: female Balb/c mice were used as the test animals, and the blood concentration of the compound was determined and the pharmacokinetic behavior was evaluated after a single administration.
Experimental operation: 12 healthy adult female Balb/c mice were selected, 6 for intravenous injection group and 6 for oral administration group. The compound to be tested was mixed with an appropriate amount of intravenous injection group vehicle (10% HP-betaCD: 10% solutol=1:1, pH=8), vortex-mixed and sonicated to prepare a 1.0 mg/mL clear solution, followed by filtration for subsequent use; the vehicle in the oral group was 0.5% MC/0.2% Tw80. After the test compound and the vehicle were mixed, it was vortex-mixed and sonicated to prepare a 1.0 mg/mL homogeneous suspension for subsequent use. After an intravenous administration at a dose of 1 mg/kg or an oral administration at the dose of 2 mg/kg and 10 mg/kg, whole blood of the mice was collected for a certain period of time to prepare plasma. The drug concentration was analyzed by LC-MS/MS method, and Phoenix WinNonlin software was used (Pharsight, USA) to calculate the pharmacokinetic parameters.
Cmax: the highest concentration of the drug in the body; F %: oral bioavailability; Oral DNAUC: area under the dose normalization curve; Vd: apparent volume of distribution; Cl: clearance rate; T1/2: half-life.

Data set [2] deals with phosphorylation of PI3K downstream protein Akt in MCF7 cells. The data set can be described thus: In vitro test of cells activity: ELISA of Akt phosphorylation in MCF7 cells. The format is cell-based. The settings on record: Homo sapiens, MCF7, 2 h, 2 h compound, insulin 10 μg/mL stimulation, pAkt ELISA, read-out: MCF7 Cell IC50. The method, boiled down:
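MCF7 cells were serum-starved overnight, exposed to 10-point three-fold compound dilutions for 2 h at 37°C, then stimulated with 10 μg/mL insulin for 30 min. Lysates were assayed for phospho-Akt by ELISA.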
On the technique in general: In an ELISA, binding on a coated surface is turned into a signal by an enzyme label.

Another data set has as its target T1, PI3Kβ (Homo sapiens, UniProt P42338).
T1 construct: purchased Promega V1751
Kind of data set: In vitro test of enzyme activity (ADP-Glo lipokinase), PI3K beta. In kind it is biochemical. The settings on record: 40 μM ATP, 50 μM PIP2:3PS, 120 min.

Structures are written as SMILES.

T1 sequence (P42338 whole entry): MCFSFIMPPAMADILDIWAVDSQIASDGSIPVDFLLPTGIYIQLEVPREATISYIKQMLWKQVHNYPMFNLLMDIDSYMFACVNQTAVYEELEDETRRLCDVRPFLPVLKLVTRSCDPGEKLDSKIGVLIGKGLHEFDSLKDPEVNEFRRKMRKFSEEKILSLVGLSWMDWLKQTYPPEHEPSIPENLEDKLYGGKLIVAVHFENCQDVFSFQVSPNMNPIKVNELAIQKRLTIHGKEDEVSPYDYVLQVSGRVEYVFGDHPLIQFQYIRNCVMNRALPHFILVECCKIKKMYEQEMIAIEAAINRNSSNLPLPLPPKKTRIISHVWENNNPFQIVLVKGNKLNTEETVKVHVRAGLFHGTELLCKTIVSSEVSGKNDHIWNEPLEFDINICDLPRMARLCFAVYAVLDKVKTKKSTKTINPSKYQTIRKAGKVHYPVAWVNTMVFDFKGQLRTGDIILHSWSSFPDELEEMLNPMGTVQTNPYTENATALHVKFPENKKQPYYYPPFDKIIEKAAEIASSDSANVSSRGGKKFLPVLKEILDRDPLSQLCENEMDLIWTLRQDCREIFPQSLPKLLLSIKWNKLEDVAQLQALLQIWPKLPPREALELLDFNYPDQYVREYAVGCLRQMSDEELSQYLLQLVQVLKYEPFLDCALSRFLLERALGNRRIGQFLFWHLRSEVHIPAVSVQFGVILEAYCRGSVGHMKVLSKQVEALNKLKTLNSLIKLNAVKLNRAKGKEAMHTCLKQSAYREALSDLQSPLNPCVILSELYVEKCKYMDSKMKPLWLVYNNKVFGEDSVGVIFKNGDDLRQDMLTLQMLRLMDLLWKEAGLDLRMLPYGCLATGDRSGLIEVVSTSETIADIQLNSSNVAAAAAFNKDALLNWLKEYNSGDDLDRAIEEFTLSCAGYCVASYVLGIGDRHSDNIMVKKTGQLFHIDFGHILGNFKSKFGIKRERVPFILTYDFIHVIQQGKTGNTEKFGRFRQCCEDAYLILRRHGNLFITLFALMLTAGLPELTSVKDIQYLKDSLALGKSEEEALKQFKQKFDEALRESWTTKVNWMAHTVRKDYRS
T1 sequence (P27986 whole entry partner): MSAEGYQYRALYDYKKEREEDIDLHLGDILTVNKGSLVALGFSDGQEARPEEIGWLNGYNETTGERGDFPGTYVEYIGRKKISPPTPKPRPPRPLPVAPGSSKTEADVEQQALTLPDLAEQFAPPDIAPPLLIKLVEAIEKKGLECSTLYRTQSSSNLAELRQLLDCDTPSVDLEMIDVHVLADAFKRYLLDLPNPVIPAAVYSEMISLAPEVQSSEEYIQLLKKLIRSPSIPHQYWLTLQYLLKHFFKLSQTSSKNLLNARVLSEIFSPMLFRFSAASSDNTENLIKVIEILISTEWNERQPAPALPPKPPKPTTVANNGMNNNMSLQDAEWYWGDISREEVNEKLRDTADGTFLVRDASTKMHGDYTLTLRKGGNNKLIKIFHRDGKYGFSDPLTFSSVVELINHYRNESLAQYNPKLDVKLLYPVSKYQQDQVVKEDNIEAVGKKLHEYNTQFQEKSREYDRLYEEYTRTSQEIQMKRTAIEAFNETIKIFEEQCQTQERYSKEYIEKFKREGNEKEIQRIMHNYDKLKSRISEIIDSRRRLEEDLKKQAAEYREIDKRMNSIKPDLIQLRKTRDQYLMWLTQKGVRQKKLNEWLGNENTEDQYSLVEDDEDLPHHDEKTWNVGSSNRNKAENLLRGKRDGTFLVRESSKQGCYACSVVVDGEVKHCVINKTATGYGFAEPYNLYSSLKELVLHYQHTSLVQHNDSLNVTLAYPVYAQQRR

Turning to `CNC(=O)CCCn1cnc2ccc(-c3cnc(OC)c(NS(=O)(=O)c4ccc(F)cc4Cl)c3)cc2c1=O` [WX198], the clearance in data set [1] (read-out: Cl (clearance rate)) came to 4.16 mL/min/kg. In data set [1] (read-out: Intravenous injection T1/2 (converted)), the half-life is 53.4 min. Further, the Vd in data set [1] (read-out: Vd (apparent volume of distribution)) came to 0.257 L/kg. Moreover, the IC50 in data set [2] amounted to 9.43 nM; against PI3Kβ, 33 nM.

Broadly, the clearance is a measure of how efficiently the substance is removed, as volume per time. The term IC50 denotes the concentration that gives 50% inhibition.

The record behind these values is US20200317660A1, “Quinazolinone Compound and Application Thereof” (LUOXIN PHARMACEUTICAL (SHANGHAI) CO., LTD., priority 2017, published 2020).
